Measured values: patent US20100009935A1, “RESISTANCE-REPELLENT […] INHIBITORS” (priority 2002, published 2010)
Like-named read-outs stand apart in the source and are kept apart here.

How the values were obtained:
Format in all cases: cell-based
HIV-1APV-P30 = test: PI sensitivity of APV-selected HIV-1APV-P30 in MT-2 cells, MTT assay; conditions: for FOLD CHANGE of IC50: HIV-1APV-P30 compared to HIV-1NL4-3 (wild type); for IC50: Human immunodeficiency virus 1, MT2, 168 h
HIV-1NL4-3 = conditions: for FOLD CHANGE of IC50: HIV-1NL4-3, reference (=1); for IC50: Human immunodeficiency virus 1, MT2, 168 h, HIV-1NL4-3 (wild type), MT-2 cells, MTT assay, day 7
HIV-1 clinical isolate 8 = test: PI sensitivity of PI-resistant clinical isolate 8 in PHA-PBMC, p24; conditions: for IC50: Human immunodeficiency virus 1, isolate 8: L10R, H37D, N46I, I62V, L63P, A71V, G73S, V77I, V82T, L90M, I93L, PHA-PBMC, p24; for FOLD CHANGE of IC50: isolate 8 compared to HIV-1wt (HIV-1ERS104pre)
HIV-1 clinical isolate 1 = test: PI sensitivity of PI-resistant clinical isolate 1 in PHA-PBMC, p24; conditions: for IC50: Human immunodeficiency virus 1, isolate 1: L10I, K14R, L33I, N36I, H46I, F53L, K55R, I62V, L63P, A71V, G73S, V82A, L90M, I93L, PHA-PBMC, p24; for FOLD CHANGE of IC50: isolate 1 compared to HIV-1wt (HIV-1ERS104pre)
HIV-1 clinical isolate 4 = test: PI sensitivity of PI-resistant clinical isolate 4 in PHA-PBMC, p24; conditions: for IC50: Human immunodeficiency virus 1, isolate 4: L10I, V11I, T12E, I15V, L19I, B41K, H46L, L63P, A71T, V82A, L90M, PHA-PBMC, p24; for FOLD CHANGE of IC50: isolate 4 compared to HIV-1wt (HIV-1ERS104pre)
HIV-1 clinical isolate 7 = test: PI sensitivity of PI-resistant clinical isolate 7 in PHA-PBMC, p24; conditions: for IC50: Human immunodeficiency virus 1, isolate 7: L10I, L24I, L33F, E35D, H36I, H37S, N46L, I54V, R57K, I62V, L63P, A71V, G73S, V82A, PHA-PBMC, p24; for FOLD CHANGE of IC50: isolate 7 compared to HIV-1wt (HIV-1ERS104pre)
HIV-1Ba-L = test: microbe, parasite or virus in culture; conditions: Human immunodeficiency virus 1, 168 h, PBNC (PHA-PBMC), p24 production, day 7, read-out: MEAN IC50 (μM) ± SDs
Protocol: (§1) The sensitivities of HIV-1LAI, HIV-1Ba-L, HIV-2EHO and the primary HIV-1 isolates against various drugs were determined as previously described with minor modifications (Shiraska et al., Proc. Natl. Acad. Sci. USA, 92, 2398-2402 (1995)).

HIV-1LAI = test: microbe, parasite or virus in culture; conditions: day 7, read-out: MEAN IC50 (μM) ± SDs
Protocol: as §1

HIV-2EHO = test: Drug sensitivity of HIV-2EHO in MT-2 cells, MTT assay; conditions: Human immunodeficiency virus 2, MT2, 168 h, HT-2 (footnote: MT-2 cells), day 7, read-out: MEAN IC50 (μM) ± SDs
Protocol: as §1

HIV-1UIC-P62 = test: PI sensitivity of compound 1-selected HIV-1UIC-P62 in MT-2 cells, MTT assay; conditions: Human immunodeficiency virus 1, MT2, 168 h, HIV-1UIC-P62 (L10F, A28S, M46I, I50V, A71V, N88D), day 7
HIV-1 clinical isolate 2 = test: PI sensitivity of PI-resistant clinical isolate 2 in PHA-PBMC, p24; conditions: for IC50: Human immunodeficiency virus 1, isolate 2: L10I, I15V, K20R, N36I, H46L, I54V, K55R, I62V, L63P, K70D, V82A, L89N, PHA-PBMC, p24; for FOLD CHANGE of IC50: isolate 2 compared to HIV-1wt (HIV-1ERS104pre)
[1] = tested on: highly cross-resistant HIV-1 strains derived from AIDS patients
HIV-1 clinical isolate 3 = test: PI sensitivity of PI-resistant clinical isolate 3 in PHA-PBMC, p24; conditions: for IC50: Human immunodeficiency virus 1, isolate 3: L10I, I15V, E35D, N37E, K45R, I54V, L63P, A71V, V82I, L90N, I93L, C95F, PHA-PBMC, p24; for FOLD CHANGE of IC50: isolate 3 compared to HIV-1wt (HIV-1ERS104pre)
HIV-1 clinical isolate 5 = test: PI sensitivity of PI-resistant clinical isolate 5 in PHA-PBMC, p24; conditions: for IC50: Human immunodeficiency virus 1, isolate 5: L10I, K43T, N46L, I54L, L63P, A71T, V82A, L90N, D92K, PHA-PBMC, p24; for FOLD CHANGE of IC50: isolate 5 compared to HIV-1wt (HIV-1ERS104pre)
[2] = tested on: HIV-1ERS104pre (wild-type clinical strain); test: PI sensitivity of wild-type clinical isolate in PHA-PBMC, p24; conditions: for IC50: Human immunodeficiency virus 1, read-out: IC50 μM; for FOLD CHANGE of IC50: wild type HIV-1ERS104pre, reference (=1)
HIV-1 clinical isolate 6 = test: PI sensitivity of PI-resistant clinical isolate 6 in PHA-PBMC, p24; conditions: for IC50: Human immunodeficiency virus 1, isolate 6: L10I, K14R, B41K, H46L, I54V, L63P, A71V, V82A, L90M, I93L, PHA-PBMC, p24; for FOLD CHANGE of IC50: isolate 6 compared to HIV-1wt (HIV-1ERS104pre)
[3] = Human immunodeficiency virus 1, 168 h, PBMC (PHA-PBMC), p24 production
[4] = Human immunodeficiency virus 1, MT2, 168 h, HT-2 (footnote: MT-2 cells), MTT assay

SMILES | FOLD CHANGE of IC50 (HIV-1APV-P30) | IC50 (HIV-1APV-P30) | FOLD CHANGE of IC50 (HIV-1NL4-3) | IC50 (HIV-1NL4-3) | IC50 (HIV-1 clinical isolate 8) | FOLD CHANGE of IC50 (HIV-1 clinical isolate 8) | IC50 (HIV-1 clinical isolate 1) | FOLD CHANGE of IC50 (HIV-1 clinical isolate 1) | IC50 (HIV-1 clinical isolate 4) | FOLD CHANGE of IC50 (HIV-1 clinical isolate 4) | IC50 (HIV-1 clinical isolate 7) | FOLD CHANGE of IC50 (HIV-1 clinical isolate 7) | IC50 (HIV-1Ba-L) | IC50 (HIV-1LAI; [3]) | IC50 (HIV-1LAI; [4]) | IC50 (HIV-2EHO) | IC50 (HIV-1UIC-P62) | IC50 (HIV-1 clinical isolate 2) | FOLD CHANGE of IC50 (HIV-1 clinical isolate 2) | IC50 (HIV-1 clinical isolate 3) | other results
CC(C)(C)NC(=O)[C@@H]1CN(Cc2cccnc2)CCN1C[C@@H](O)C[C@@H](Cc1ccccc1)C(=O)N[C@H]1c2ccccc2C[C@H]1O [IDV, Indinavir] | (30) fold | 0.32 µM | (1) fold | 0.011 µM | 0.55 µM | (42) fold | > 1 µM | (>77) fold | 0.21 µM | (16) fold | > 1 µM | (>77) fold | 0.017 ± 0.011 µM | 0.015 ± 0.004 µM | 0.019 ± 0.009 µM | 0.01 ± 0.004 µM | 0.08 µM | 0.49 µM | (38) fold | 0.49 µM | antiviral activity against patient isolates with multiple mutations compared with wild type HIV strains (in words) [1]: dramatically less potent; FOLD CHANGE of IC50 (HIV-1 clinical isolate 3): (38) fold; IC50 (HIV-1 clinical isolate 5): > 1 µM; FOLD CHANGE of IC50 (HIV-1 clinical isolate 5): (>77) fold; IC50 [2]: 0.013 µM; FOLD CHANGE of IC50 [2]: (1) fold; IC50 (HIV-1 clinical isolate 6): 0.3 µM; FOLD CHANGE of IC50 (HIV-1 clinical isolate 6): (23) fold
CC(C)(C)NC(=O)[C@@H]1C[C@@H]2CCCC[C@@H]2CN1C[C@@H](O)[C@H](Cc1ccccc1)NC(=O)[C@H](CC(N)=O)NC(=O)c1ccc2ccccc2n1 [SQV, Saquinavir] | (2) fold | 0.035 µM | (1) fold | 0.019 µM | 0.042 µM | (4) fold | 0.27 µM | (27) fold | 0.033 µM | (3) fold | 0.12 µM | (12) fold | 0.014 ± 0.01 µM | 0.011 ± 0.005 µM | 0.023 ± 0.002 µM | 0.004 ± 0.0005 µM | 0.01 µM | 0.037 µM | (4) fold | 0.036 µM | level of resistance (fold), range over the isolates ([1]; compared to wild-type clinical strain HIV-1ERS104pre): 3-31 fold; antiviral activity against patient isolates with multiple mutations compared with wild type HIV strains (in words) ([1]; multidrug resistant patient isolates): dramatically less potent; FOLD CHANGE of IC50 (HIV-1 clinical isolate 3): (4) fold; IC50 (HIV-1 clinical isolate 5): 0.31 µM; FOLD CHANGE of IC50 (HIV-1 clinical isolate 5): (31) fold; IC50 [2]: 0.03 µM; FOLD CHANGE of IC50 [2]: (1) fold; IC50 (HIV-1 clinical isolate 6): 0.19 µM; FOLD CHANGE of IC50 (HIV-1 clinical isolate 6): (19) fold
